These results are taken from US6610685B2, “Fused indole derivatives” (Hoffmann-La Roche Inc., priority 2000, dated 2003).

For orientation: EC50 means the concentration needed to bring the measured effect to its halfway point. By melting point is commonly meant the temperature of the solid-liquid transition. What is called Ki is the dissociation constant of the complex between target and ligand, obtained from inhibition or displacement.

Read-outs that look alike come from different tables or passages of the source.

Data set [1] has as its target T1, 5-HT2A receptor (Homo sapiens, UniProt P28223). The experiment in a line: Functional activity, FLIPR calcium assay, CHO cells expressing human 5-HT2A. Type of data set: cell-based. The arrangement: expressed in transfected cells; host or cells: CHO cells. How it is done: (§1) The functional activity of compounds of formula (I) was assayed using a Fluorimetric Imaging Plate reader (FLIPR). CHO cells expressing the human 5-HT2C or human 5-HT2A receptors were counted and plated into standard 96 well microtitre plates on the day before testing to give a confluent monolayer. The cells were then dye loaded with the calcium sensitive dye, Fluo-3-AM. Unincorporated dye was removed using an automated cell washer to leave a total volume of 100 μL/well of assay buffer (Hanks balanced salt solution containing 20 mM Hepes and 2.5 mM probenecid). The drug (dissolved in 50 μL of the assay buffer) was added at a rate of 70 μL/sec to each well of the FLIPR 96 well plate during fluorescence measurements. The measurements were taken at 1 sec intervals and the maximum fluorescent signal was measured (approx 10-15 secs after drug addition) and compared with the response produced by 10 μM 5-HT (defined as 100%) to which it was expressed as a percentage response (relative efficacy). Dose response curves were constructed using Graphpad Prism (Graph Software Inc.).

The target of data set [2] is T2, 5-HT2C receptor (Homo sapiens, UniProt P28335).
T2 sequence (P28335 33-458): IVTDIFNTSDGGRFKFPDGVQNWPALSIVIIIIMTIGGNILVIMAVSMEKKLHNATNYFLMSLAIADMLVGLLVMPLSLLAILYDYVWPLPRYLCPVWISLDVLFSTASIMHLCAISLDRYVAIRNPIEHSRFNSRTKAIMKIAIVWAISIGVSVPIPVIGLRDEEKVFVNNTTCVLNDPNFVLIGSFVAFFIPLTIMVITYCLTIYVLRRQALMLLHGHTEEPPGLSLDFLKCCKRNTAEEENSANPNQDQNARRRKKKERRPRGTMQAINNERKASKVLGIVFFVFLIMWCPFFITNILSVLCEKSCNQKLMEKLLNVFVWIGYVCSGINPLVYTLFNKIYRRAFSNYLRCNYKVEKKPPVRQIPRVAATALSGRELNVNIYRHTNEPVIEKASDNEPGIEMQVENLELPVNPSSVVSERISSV
The experiment in a line: Functional activity, FLIPR calcium assay, CHO cells expressing human 5-HT2C. Format: cell-based. More on the design: expressed in transfected cells; host or cells: CHO cells. The following applies: for h5-HT2c Relative Efficacy: relative to response of 10 μM 5-HT (100%). As for the experimental part:
as §1

The conditions of data set [3]: literature; cited from earlier work.
For data set [4] the following is noted: literature, cited from earlier work.
Data set [5] in a line: Pharmacodynamic study: food intake up to 16 hours after compound administration. Type of data set: in vivo, rats. The following applies: 30 mg/kg p.o. How it is done:
The in vivo activity of compounds of formula (I) was assayed for ability to regulate feeding behaviour during a time period up to 16 hours after compound administration.
The test compound was assessed following acute administration. Each study utilised a between-subjects design (typically n=8) and compared the effects of a single dose of the test agent to those of vehicle.
Example 1 was administered at a dose of 30 mg/kg p.o. in a distilled water vehicle 2, 4, 8, or 16 hours prior to food presentation. At the time of food presentation (standard laboratory chow) all animals had been subjected to a 23-hour food deprivation period. Water was freely available throughout the study. The amount of food consumed over 1 hour was determined. Food intake data were subjected to two-way analysis of variance (ANOVA) with drug treatment as a between-subjects factor and injection-test-interval as a between subjects factor. Newman-Keuls tests were performed to assess whether differences between the vehicle mean and the drug-treated mean at each level of injection-test-interval were significant. All statistical analyses were performed using Statistica Software, Version 5.0 (Statsoft Inc.) and Microsoft Excel 7.0 (Microsoft Corp.).

In data set [6] the target is T1, 5-HT2A receptor. In words: Binding to the 5-HT2A receptor, Method (c), [125I]-DOI. More on the design: expressed in transfected cells; host or cells: CHO cell line. How it is done:
(§2) The binding of compounds of formula (I) to serotonin receptors was determined in vitro by standard methods. The preparations were investigated in accordance with the assays given hereinafter.
Method (c): For the binding to the 5-HT2A receptor the 5-HT2A receptors were radiolabeled with [^125I]-DOI. The affinity of the compounds for 5-HT2A receptors in a CHO cell line was determined according to the procedure of D. J. McKenna and S. J. Peroutka, J. Neurosci., 1989, 9, 3482-90.
(§3) The Ki values are calculated according to the method of Cheng, Yung-Chi, and Prusoff, W. H. Biochem. Pharmacol. 1973, 22(23) 3099-108.

The target of data set [7] is T2, 5-HT2C receptor. The experiment in a line: Binding to the 5-HT2C receptor, Method (a), [3H]-5-HT. More on the design: expressed in transfected cells; host or cells: CHO cell line. How it is done:
as §2
Method (a): For the binding to the 5-HT2C receptor the 5-HT2C receptors were radiolabeled with [^3H]-5-HT. The affinity of the compounds for 5-HT2C receptors in a CHO cell line was determined according to the procedure of D. Hoyer, G. Engel and H. O. Kalkman, European J. Pharmacol., 1985, 118, 13-23.
as §3

Data set [8] has as its target T3, human 5-HT2B receptors (Homo sapiens, UniProt P41595).
T3 construct: expressed in transfected cells; host or cells: CHO cell line
The experiment in a line: Binding to the 5-HT2B receptor, Method (b), [3H]-5-HT. As for the experimental part: as §2
Method (b): For the binding to the 5-HT2B receptor the 5-HT2B receptors were radiolabeled with [^3H]-5-HT. The affinity of the compounds for human 5-HT2B receptors in a CHO cell line was determined according to the procedure of K. Schmuck, C. Ullmer, P. Engels and H. Lubbert, FEBS Lett., 1994, 342, 85-90.
as §3

T1 sequence (P28223 whole entry): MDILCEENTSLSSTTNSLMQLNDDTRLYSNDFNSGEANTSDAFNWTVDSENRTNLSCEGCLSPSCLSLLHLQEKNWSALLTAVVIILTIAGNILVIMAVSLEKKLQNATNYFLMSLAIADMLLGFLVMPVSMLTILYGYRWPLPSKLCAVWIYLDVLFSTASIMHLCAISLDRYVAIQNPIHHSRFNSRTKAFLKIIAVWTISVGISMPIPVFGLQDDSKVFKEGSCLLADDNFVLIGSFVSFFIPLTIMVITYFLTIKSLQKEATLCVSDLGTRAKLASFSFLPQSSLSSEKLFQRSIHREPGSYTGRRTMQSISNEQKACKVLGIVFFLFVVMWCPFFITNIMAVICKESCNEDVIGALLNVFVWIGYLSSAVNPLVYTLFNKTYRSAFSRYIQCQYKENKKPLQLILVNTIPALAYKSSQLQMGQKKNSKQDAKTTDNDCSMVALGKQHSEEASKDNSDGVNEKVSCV
T3 sequence (P41595 whole entry): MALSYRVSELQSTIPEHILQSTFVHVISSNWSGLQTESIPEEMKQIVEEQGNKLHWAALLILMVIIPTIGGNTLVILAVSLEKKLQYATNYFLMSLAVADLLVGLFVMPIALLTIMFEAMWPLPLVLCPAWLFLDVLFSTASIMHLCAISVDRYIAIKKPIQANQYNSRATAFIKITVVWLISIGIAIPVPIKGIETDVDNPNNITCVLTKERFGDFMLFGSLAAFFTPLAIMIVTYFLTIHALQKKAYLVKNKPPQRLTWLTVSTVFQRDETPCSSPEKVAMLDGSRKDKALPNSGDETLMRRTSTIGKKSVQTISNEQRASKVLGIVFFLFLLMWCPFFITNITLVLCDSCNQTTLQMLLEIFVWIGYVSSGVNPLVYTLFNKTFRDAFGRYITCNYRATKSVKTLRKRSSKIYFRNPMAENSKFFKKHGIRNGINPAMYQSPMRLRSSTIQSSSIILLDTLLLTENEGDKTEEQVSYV

With `C[C@H](N)Cc1c2n(c3ccc(OC4CC4)cc13)CCC2` [Example 3, (S)-2-(6-cyclopropoxy-2,3-dihydro-1H-3a-aza-cyclopenta[a]inden-8-yl)-1-methyl-ethylamine], the EC50 in data set [1] (FLIPR, CHO cells, read-out: h5-HT2A EC50) is over 1000 nM; in data set [2] (FLIPR, CHO cells, read-out: h5-HT2c EC50), 3 nM. Besides, the “h5-HT2c Relative Efficacy” value in data set [2] came out at 84%.
In the case of `Clc1cccc(N2CCNCC2)c1` [mCPP, m-chlorophenylpiperazine], in [3], the behavioural satiety sequence result is given as “accelerate the appearance of the behavioural satiety sequence” and the “food intake in rats” value is “reduce food intake”. For the same compound, the “food intake in female volunteers” value in data set [4] (single dose) is listed as “decreased food intake”. The “appetite and body weight of obese male and female subjects” value in data set [4] (subchronic treatment for a 14 day period) was “decreased the appetite and body weight”.
`COCCCCOc1ccc2c(c1)c(C[C@H](C)N)c1n2CCC1.Cl` showed a melting point of 107 °C.
`CCOCCOc1ccc2c(c1)c(C[C@H](C)N)c1n2CCC1.Cl` yielded a melting point of 170 to 172 °C.
Take `CCOc1ccc2c(c1)c(C[C@H](C)N)c1n2CCC1` [Example 1, (S)-2-(6-ethoxy-2,3-dihydro-1H-3a-aza-cyclopenta[a]inden-8-yl)-1-methyl-ethylamine]: the “h5-HT2A Relative Efficacy” value in [1] (relative to response of 10 μM 5-HT (100%)) stood at 33%. Besides, the “duration of action in reducing rat food intake” value in [5] is recorded as “at least 16 hours”. Also, the “h5-HT2c Relative Efficacy” value in data set [2] was 87%. Besides, the Ki in data set [6] stood at 410 nM; in data set [7] (Method (a), [3H]-5-HT, CHO cell line, Ki by Cheng-Prusoff, read-out: Ki (2C)) it was 11 nM; in [8] it was 830 nM.
For the compound `COCCOc1ccc2c(c1)c(C[C@H](C)N)c1n2CCC1` [Example 2, (S)-2-[6-(2-methoxy-ethoxy)-2,3-dihydro-1H-3a-aza-cyclopenta[a]inden-8-yl]-1-methyl-ethyl amine], the Ki in [6] (Method (c), [125I]-DOI, CHO cell line, Ki by Cheng-Prusoff, read-out: Ki (2A)) was found to be 520 nM; in data set [7], 19 nM; in data set [8] (Method (b), [3H]-5-HT, human 5-HT2B in CHO cell line, Ki by Cheng-Prusoff, read-out: Ki (2B)), 480 nM.
`CCOCCCOc1ccc2c(c1)c(C[C@H](C)N)c1n2CCC1.Cl` had a melting point of 132 °C.
